Reference: US9901079B2, “Inhibition of oncogenic kras-induced GM-CSF production and function” (New York University, priority 2011, dated 2018)

Test system: GM-CSF expression in Kras^G12D-PDEC
Experiment: GM-CSF mRNA expression in GFP-Kras^G12D-PDEC after pathway inhibitor treatment (quantitative RT-PCR)
Assay type: cell-based, mouse
Details: 24 hour treatment; U0126 2 μM, LY294002 10 μM (FIG. 3B)
From the text: Data are presented as an average fold induction over values from GFP-WT-PDEC or normal pancreata. Error bars indicate SD (n=3). […] Error bars indicate SD (n=3). […] Data are presented as an average fold induction over values from normal pancreatic tissue. Error bars indicate SD (n=3). FIG. 3D are photomicrographs showing immunohistochemical staining for GM-CSF protein in representative samples of human pancreatic cancer containing PanIN lesions (i-normal duct from adjacent non-malignant tissue; ii-iii PanIN lesions; iv-invasive PDA). White arrowheads indicate pancreatic duct (i), PanIN (ii and iii), and PDA (iv). Scale bars=50 μm. Extraction and reverse transcription of total RNA from PDECs was performed using RNeasy mini kit (QIAGEN) and QuantiTect reverse transcription kit (QIAGEN), respectively. SYBR Green PCR Master Mix (USB) was used for amplification and the samples were run on the Stratagene Mx 3005P. Expression levels were normalized by GAPDH.

With N#CC(=C(/N)Sc1ccccc1N)/C(C#N)=C(\N)Sc1ccccc1N [U0126] the “GM-CSF expression in Kras^G12D-PDEC” value was “abrogation of GM-CSF expression”.
